# Measurements taken from patent US5786332A, “Cytokine restraining agents and methods of use in pathologies and conditions associated with altered cytokine levels” (Trega Biosciences, Inc., priority 1995, dated 1998).
# What was measured:
# Assay type in all cases: in vivo
# Wistar rats = test: LPS-induced temperature increase (fever); settings: 6 hr following LPS
# Method: Male Wistar rats (45-75 days old) were placed in a temperature controlled room held at 26° C., which is thermoneutral for the normal body temperature of rats, and were maintained in the room with free access to food and water for 24 hr prior to testing. On the morning of the study, rats were marked for identification and weighed. The temperature of each rat was determined by placing the animal in a restraining cage designed to minimize stress and inserting a temperature probe (YSI probe #402) 3-5 cm into the animal's rectum. The temperature was recorded 15 sec after the reading stabilized. Measurements were repeated 1 hr later to establish a baseline temperature for each rat.
# After the baseline temperatures were established, rats were injected IP with saline, IL-1β or LPS endotoxin.
# Rats then were injected IP with either saline (control) or various concentrations of EX-2, EX-3, or EX-4 (treated). The temperature of the rats was measured every hr for 6 hr and the inhibition by EX-2, EX-3, or EX-4 of the rise in temperature due to IL-1β or LPS was determined.
# In addition, treatment with 50 or 150 μg/kg EX-2 inhibited LPS-induced fever by 45% or 52%, respectively, when measured 6 hr following LPS injection. Furthermore, treatment with 150 μg/kg EX-3 or EX-4 inhibited LPS-induced fever by 57% and 52%, respectively (Table II).
# Sprague-Dawley rats = test: Cyclosporine-induced nephrotoxicity
# Text: B. Cyclosporine-Induced Nephrotoxicity: This experiment as performed to ascertain if EX-2 can mitigate the reduction in glomerular filtration rate (GFR) and renal blood flow, as well as the dysfunction in fluid and electrolyte homeostasis induced by immunosuppressive treatment with cyclosporine A.
# In the first study, male Sprague-Dawley rats (n=43) with a weight range of 240-290 g at the initiation of the cyclosporine A (CsA) treatment were divided into 4 weight matched groups. The groups were as follows: (1) Control: no CsA, no EX-2, treatment only with CsA vehicle (PBS) PO and EX-2 vehicle (also PBS) IP; (2) CsA: treatment with CsA (50 mg/kg in PBS administered PO daily at 0830 hr for 9 days) and IP injections of PBS (Ex-2 vehicle); (3) CsA and 50 μg: CsA treatment identical to group 2 with the addition of EX-2 (50 μg/kg IP administered daily at 0800 and 1700 hr in EX-2 vehicle); and (4) CsA and 500 μg: CsA treatment identical to groups 2 and 3, and EX-2 treatment protocol similar to group 3 except that the dose of EX-2 was 500 μg/kg BW. After deep anesthesia was assured, the rats were cannulated in the trachea (PE 240) jugular vein, femoral artery, and bladder (PE 50 for the previous 3 cannulations).After cannulation, infusion of ^3 H-inulin was initiated 50 min prior to the measurement period to assess glomerular filtration rate, renal blood flow and plasma flow. Renal blood flow was determined by the inulin extraction technique. At the end of the study, the kidneys were removed for histological analysis.
# In the second study, male Sprague-Dawley rats (n=31) with a weight range of 240-290 g at the time of initiation of the cyclosporine treatment were divided into 4 weight-matched groups. […] Renal hemodynamics were determined and extracellular fluid volumes were also assessed.
# In the second study, where extracellular fluid volumes (ECF) were measured, there were no differences in ECF among control and treatment groups (27.6±1.9 in control, 27.5±1.7 in CsA and vehicle, 26.2±0.9 in CsA+200 μg/kg EX-2, and 25.7±1.4% in CsA+500 μg/kg EX-2). […]
# [1] = tested on: Harlan Sprague-Dawley rats; test: Adult respiratory distress syndrome: LPS-induced PMN count in broncho-alveolar lavage; settings: 100 μg/kg IP; LPS 5 mg/kg intratracheal; lavage at 6 hr
# Method: These experiments were performed using a modification of the methods described by Ulich et al., Am. J. Pathol. 141:61-68 (1992) and by Wheelden et al., Lab. Animals 26:29-37 (1992), each of which is incorporated herein by reference. Male Harlan Sprague-Dawley rats were anesthetized using a mixture of 70 mg/kg ketamine and 6 mg/kg rompun injected IP. A 2-3 cm incision was made in the neck of each anesthetized rat and its trachea was exposed by blunt dissection of the surrounding soft tissue. The rats were suspended on a near vertical slab and intratracheal injections were performed by inserting into the exposed trachea, at a point 1 cm posterior to the larynx, a 25 G×1/2 inch needle attached to a 1 cc syringe.
# Each rat received 0.5 ml/kg of saline or 0.5 ml/kg of 10 mg/ml (5 mg/kg) LPS endotoxin via slow intratracheal administration. Immediately following administration of the LPS endotoxin, rats were injected IP with 1 ml/kg of either saline (control) or saline containing various concentrations of EX-2 (treated). The rats were maintained in the elevated position for 1-2 min to facilitate distribution of the LPS and saline into the lung. The incisions were closed and the rats were allowed to recover. […]
# neutrophils) in the broncho-alveolar lavage fluid were counted in the EX-2-treated rats and compared with the number in the control rats.
substance,measurement,setting,value
Ac-Nle-Gln-His-(D)Phe-Arg-(D)Trp-Gly-NH2 [EX-2],Reduction in LPS-induced Fever,Wistar rats; 50 μg/kg IP,45%
same,Reduction in LPS-induced Fever,Wistar rats; 150 μg/kg IP,52%
same,Renal blood flow in CsA-treated rats,"Sprague-Dawley rats; EX-2 IP twice daily with CsA, both studies",improved blood flow to values not different from control
same,GFR in CsA-treated rats,"Sprague-Dawley rats; compared to CsA and vehicle controls, both studies",significantly increased GFR
same,Urinary protein excretion in CsA-treated rats,Sprague-Dawley rats; compared to CsA-treated rats,did not increase urinary protein excretion
same,Reduction in LPS-induced PMN Count,[1],58%
